Data from patent US11147272B2, “Pyridone compounds and agricultural and horticultural fungicides comprising the same as active ingredients” (MITSUI CHEMICALS AGRO, INC., priority 2017, dated 2021).

Tests used:
[1] = system: Colletotrichum orbiculare; test: Test Example H: Anthracnose on cucumber; conditions: 250 ppm drug solution sprayed (2.5 ml/pot), cucumber Sagami Hanjiro, 6 to 10 days after inoculation
Plasmopara viticola = test: Test Example G: Downy mildew on vine; conditions: 250 ppm drug solution sprayed (2.5 ml/pot), grape Neomuscat, 7 to 10 days after inoculation
Puccinia recondita = test: Test Example E: Brown rust on wheat; type: in vivo; conditions: 250 ppm drug solution sprayed on test plant
[2] = system: Blumeria graminis f. sp. hordei; test: Test Example D: Powdery mildew on barley; conditions: 250 ppm drug solution sprayed on test plant
Magnaporthe grisea = test: whole plant or invertebrate; type: in vivo; conditions: 250 ppm drug solution sprayed on test plant
Botrytis cinerea = test: Test Example B: Gray mold on tomato; conditions: 250 ppm drug solution sprayed on test plant
Phytophthora infestans = test: whole plant or invertebrate; type: in vivo; conditions: 250 ppm drug solution sprayed on test plant
Alternaia brassicicola = test: Test Example C: Alternaria sooty spot on cabbage; type: in vivo; conditions: 250 ppm drug solution sprayed on test plant
Source text: Seeds of a test plant (cabbage variety: Shikidori) were planted and cultivated until the cotyledons extended.
<Control Value> Control value=100{1−(n/3)}

Structure (SMILES) | Test H control value [1] | Test G control value (Plasmopara viticola) | Test E control value (Puccinia recondita) | Test D control value [2] | Test A control value (Magnaporthe grisea) | Test B control value (Botrytis cinerea) | Test F control value (Phytophthora infestans) | Test C control value (Alternaia brassicicola)
CCc1cc(Br)c(=O)n(C)c1-c1ccc(OC)cc1C [compound 375] | L (50% or less control value) | H (more than 50% control value) | H (more than 50% control value) | H (more than 50% control value) | L (50% or less control value) | H (more than 50% control value) | H (more than 50% control value) | H (more than 50% control value)
CCCc1cc(Cl)c(=O)n(CC)c1-c1ccc(OC)cc1Br [compound 376] | H (more than 50% control value) | H (more than 50% control value) | H (more than 50% control value) | H (more than 50% control value) | H (more than 50% control value) | H (more than 50% control value) | H (more than 50% control value) | H (more than 50% control value)
CCc1ccc(=O)n(CC)c1-c1c(F)cc(F)cc1F [compound 377] | H (more than 50% control value) | L (50% or less control value) | L (50% or less control value) | H (more than 50% control value) | L (50% or less control value) | L (50% or less control value) | L (50% or less control value) | L (50% or less control value)
CCCc1cc(Cl)c(=O)n(CC)c1-c1c(F)cc(F)cc1F [compound 378] | H (more than 50% control value) | L (50% or less control value) | H (more than 50% control value) | H (more than 50% control value) | H (more than 50% control value) | H (more than 50% control value) | L (50% or less control value) | H (more than 50% control value)
CCn1c(-c2c(F)cc(F)cc2F)c(C)cc(I)c1=O [compound 379] | H (more than 50% control value) | L (50% or less control value) | H (more than 50% control value) | H (more than 50% control value) | L (50% or less control value) | H (more than 50% control value) | L (50% or less control value) | H (more than 50% control value)
CCn1c(-c2c(F)cc(OC)cc2F)c(C)cc(I)c1=O [compound 380] | H (more than 50% control value) | L (50% or less control value) | H (more than 50% control value) | H (more than 50% control value) | H (more than 50% control value) | H (more than 50% control value) | H (more than 50% control value) | H (more than 50% control value)
CCn1c(-c2c(F)cc(F)cc2F)c(C(C)(O)C(C)C)cc(Br)c1=O (stereo not drawn) [compound 381] | H (more than 50% control value) | H (more than 50% control value) | H (more than 50% control value) | H (more than 50% control value) | H (more than 50% control value) | H (more than 50% control value) | H (more than 50% control value) | H (more than 50% control value)
CCCc1cc(Br)c(=O)n(CC)c1-c1ccc(OC)cc1Br [compound 382] | H (more than 50% control value) | H (more than 50% control value) | H (more than 50% control value) | L (50% or less control value) | H (more than 50% control value) | H (more than 50% control value) | H (more than 50% control value) | H (more than 50% control value)
CCCc1ccc(=O)n(CC)c1-c1c(F)cc(OC)cc1F [compound 383] | H (more than 50% control value) | H (more than 50% control value) | H (more than 50% control value) | H (more than 50% control value) | H (more than 50% control value) | H (more than 50% control value) | L (50% or less control value) | H (more than 50% control value)
CCCc1cc(Cl)c(=O)n(CC)c1-c1c(F)cc(OC)cc1F [compound 384] | H (more than 50% control value) | H (more than 50% control value) | H (more than 50% control value) | H (more than 50% control value) | H (more than 50% control value) | H (more than 50% control value) | L (50% or less control value) | H (more than 50% control value)
CCCc1cc(Br)c(=O)n(CC)c1-c1c(F)cc(OC)cc1F [compound 385] | H (more than 50% control value) | H (more than 50% control value) | H (more than 50% control value) | H (more than 50% control value) | H (more than 50% control value) | H (more than 50% control value) | L (50% or less control value) | H (more than 50% control value)
CCc1cc(Cl)c(=O)n(CC)c1-c1c(F)cc(F)cc1F [compound 386] | H (more than 50% control value) | H (more than 50% control value) | H (more than 50% control value) | H (more than 50% control value) | H (more than 50% control value) | H (more than 50% control value) | L (50% or less control value) | H (more than 50% control value)
CCc1cc(Br)c(=O)n(CC)c1-c1c(F)cc(F)cc1F [compound 387] | H (more than 50% control value) | H (more than 50% control value) | H (more than 50% control value) | H (more than 50% control value) | H (more than 50% control value) | H (more than 50% control value) | L (50% or less control value) | H (more than 50% control value)
CCc1ccc(=O)n(CC)c1-c1c(F)cc(OC)cc1F [compound 388] | H (more than 50% control value) | L (50% or less control value) | H (more than 50% control value) | L (50% or less control value) | H (more than 50% control value) | H (more than 50% control value) | L (50% or less control value) | H (more than 50% control value)
CCCc1cc(Br)c(=O)n(CC)c1-c1c(F)cc(F)cc1F [compound 389] | H (more than 50% control value) | L (50% or less control value) | H (more than 50% control value) | H (more than 50% control value) | H (more than 50% control value) | H (more than 50% control value) | L (50% or less control value) | H (more than 50% control value)
